Assay results from US20110070232A1, “Combination Therapy with an Antitumor Alkaloid” (Pharma Mar, S.A., priority 2008, published 2011).
pIC50: −log10 of the molar value. Like-named read-outs stand apart in the source and are kept apart here.

What was measured:
MRI-H-254 tumors = format: in vivo, mice
Procedure: Female athymic nude mice (Harlan Sprague Dawley, Madison, Wis.) were utilized for all experiments. Animals were housed in ventilated rack caging with food and water ad libitum. The mice were acclimated for at least 5 days prior to tumor implantation with tumor fragments.
Treatments were initiated on DPI 20.
(§1) Tumor size measurements were recorded twice weekly from the treatment initiation until the termination of the study.
(§2) Mean, standard deviation and standard error of the mean were determined for tumor volume for all animal groups at all assessments. Student's t test was performed on tumor volumes at each measurement day, including at the end of the study, to determine whether there were any statistically significant differences between combination treatment groups and single monotherapy treatment groups.

Hs746T tumors = format: in vivo, mice; conditions: for % T/C on day 14 / % T/C on day 19 / % T/C on day 22 / % T/C on day 26 / % T/C on day 29 / % T/C on day 32 / % T/C on day 39: PM00104 0.90 IV, DPI 14, 21, 28
Procedure: Female athymic nude mice (Harlan Sprague Dawley, Madison, Wis.) were utilized for all experiments. Animals were housed in ventilated rack caging with food and water ad libitum. The mice were acclimated for at least 5 days prior to tumor implantation with a tumor cell suspension.
The tumor model used in these studies was Hs746T cell line, which was obtained from the ATCC (Manassas, Va.).
Treatments were initiated on DPI 14.
as §1, §2

[1] = system: HT-29 (colon cancer) cell line; assay: IC50 determination, MIT (tetrazolium) assay, 72 h (Example 18); format: cell-based, human; conditions: HT-29, 72 hours of drug exposure
Procedure: (§3) Before plating, cell cultures were trypsinized and cell number estimated using an automated flow cytometer.
(§4) Cells were harvested and seeded in 96 well microtiter plates at the appropriate cell density (5,000-10,000 cells) in 150 μL of media and incubated for 24 hours to allow the cells to attach before drug addition.
(§5) After the incubation period (72 hours), 50 μL of MIT solution was added to each microtiter well and incubated for further 8 hours at 37° C. The culture medium was then removed and 50 μl, of DMSO were added to dissolve the MIT crystals. Optical densities were read at 540 nm on spectrophotometer microplate reader.
(§6) IC50 values were calculated from an average of two to four assays for each of the test agents.

[2] = system: LoVo (colon cancer) cell line; assay: as above; format: cell-based, human; conditions: 72 hours of drug exposure
Procedure: as §3, §4, §5, §6

[3] = system: HGC-27 human gastric carcinoma cell line; assay: IC50 determination, MTS assay, 72 h (Example 1); format: cell-based; conditions: 72 hours of drug exposure
Method in brief: (§7)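 Cells are seeded at 10,000 per well and allowed to attach for 24 h, then exposed to compound for 72 h. Viability is read by MTS/PMS, 4 h at 37 °C, with OD at 490 nm, and referenced to a time-0 plate. IC50 is averaged from two to four assays.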

[4] = system: AGS human gastric carcinoma cell line; assay: IC50 determination, MTS assay, 72 h (Example 1); format: cell-based; conditions: 72 hours of drug exposure
Method in brief: as §7

[5] = system: Hs746T human gastric carcinoma cell line; assay: IC50 determination, MTS assay, 72 h (Example 1); format: cell-based; conditions: 72 hours of drug exposure
Method in brief: as §7

[6] = system: HCT-116 (colon cancer) cell line; assay: IC50 determination, MIT (tetrazolium) assay, 72 h (Example 18); format: cell-based, human; conditions: HCT-116, 72 hours of drug exposure
Procedure: HCT-116 cells were grown in McCoy's supplemented with 10% Fetal Bovine Serum (FBS), 1% penicillin/streptomycin and 2 mM L-glutamine.
as §3, §4, §5, §6

[7] = PM00104 0.90 IV, docetaxel 8 IP, oxaliplatin 4 IP mg/kg/day (G4, G6, G8, G10), DPI 20, 27, 34
[8] = PM00104 0.90 IV, docetaxel 16 IP, oxaliplatin 8 IP mg/kg/day (G2, G3, G5, G7, G9), DPI 20, 27, 34
[9] = docetaxel 8 IP, oxaliplatin 4 IP mg/kg/day (G4, G6, G8, G10)
[10] = docetaxel 16 IP, oxaliplatin 8 IP mg/kg/day (G2, G3, G5, G7, G9)

O=C1[O][Pt]2([NH][C@@H]3CCCC[C@H]3[NH]2)[O]C1=O [Oxaliplatin, oxaliplatin]
% T/C on day 20 (MRI-H-254 tumors; [7]): 94.5%
% T/C on day 23 (MRI-H-254 tumors; [7]): 118.5%
% T/C on day 27 (MRI-H-254 tumors; [7]): 113.6%
% T/C on day 33 (MRI-H-254 tumors; [7]): 107.6%
% T/C on day 36 (MRI-H-254 tumors; [7]): 115.1%
% T/C on day 40 (MRI-H-254 tumors; [7]): 115.0%
% T/C on day 48 (MRI-H-254 tumors; [7]): 92.4%
% T/C on day 20 (MRI-H-254 tumors; [8]): 95.1%
% T/C on day 23 (MRI-H-254 tumors; [8]): 100.9%
% T/C on day 27 (MRI-H-254 tumors; [8]): 77.2%
% T/C on day 30 (MRI-H-254 tumors; [8]): 81.7%
% T/C on day 33 (MRI-H-254 tumors; [8]): 75.0%
% T/C on day 36 (MRI-H-254 tumors; [8]): 71.1%
% T/C on day 40 (MRI-H-254 tumors; [8]): 67.5%
% T/C on day 48 (MRI-H-254 tumors; [8]): 55.9%
% Inhibition (MRI-H-254 tumors; day 20, PM00104 0.9 and oxaliplatin 4 mg/kg/day): 5.5%
% Inhibition (MRI-H-254 tumors; day 20, PM00104 0.9 and oxaliplatin 8 mg/kg/day): 4.9%
% Inhibition (MRI-H-254 tumors; day 23, PM00104 0.9 and oxaliplatin 4 mg/kg/day): −18.5%
% Inhibition (MRI-H-254 tumors; day 23, PM00104 0.9 and oxaliplatin 8 mg/kg/day): −0.9%
% Inhibition (MRI-H-254 tumors; day 27, PM00104 0.9 and oxaliplatin 4 mg/kg/day): −13.6%
% Inhibition (MRI-H-254 tumors; day 27, PM00104 0.9 and oxaliplatin 8 mg/kg/day): 22.8%
% Inhibition (MRI-H-254 tumors; day 30, PM00104 0.9 and oxaliplatin 4 mg/kg/day): −17.1%
% Inhibition (MRI-H-254 tumors; day 30, PM00104 0.9 and oxaliplatin 8 mg/kg/day): 18.3%
% Inhibition (MRI-H-254 tumors; day 33, PM00104 0.9 and oxaliplatin 4 mg/kg/day): −7.6%
% Inhibition (MRI-H-254 tumors; day 33, PM00104 0.9 and oxaliplatin 8 mg/kg/day): 25.0%
% Inhibition (MRI-H-254 tumors; day 36, PM00104 0.9 and oxaliplatin 4 mg/kg/day): −15.1%
% Inhibition (MRI-H-254 tumors; day 36, PM00104 0.9 and oxaliplatin 8 mg/kg/day): 28.9%
% Inhibition (MRI-H-254 tumors; day 40, PM00104 0.9 and oxaliplatin 4 mg/kg/day): −15.0%
% Inhibition (MRI-H-254 tumors; day 40, PM00104 0.9 and oxaliplatin 8 mg/kg/day): 32.5%
% Inhibition (MRI-H-254 tumors; day 48, PM00104 0.9 and oxaliplatin 4 mg/kg/day): 7.6%
% Inhibition (MRI-H-254 tumors; day 48, PM00104 0.9 and oxaliplatin 8 mg/kg/day): 44.1%
% T/C on day 14 (Hs746T tumors; [9]): 99.9%
% T/C on day 19 (Hs746T tumors; [9]): 79.9%
% T/C on day 22 (Hs746T tumors; [9]): 83.8%
% T/C on day 26 (Hs746T tumors; [9]): 78.6%
% T/C on day 29 (Hs746T tumors; [9]): 84.2%
% T/C on day 32 (Hs746T tumors; [9]): 87.5%
% T/C on day 39 (Hs746T tumors; [9]): 108.4%
% T/C on day 14 (Hs746T tumors; [10]): 99.6%
% T/C on day 19 (Hs746T tumors; [10]): 83.5%
% T/C on day 22 (Hs746T tumors; [10]): 84.9%
% T/C on day 26 (Hs746T tumors; [10]): 89.1%
% T/C on day 29 (Hs746T tumors; [10]): 84.5%
% T/C on day 32 (Hs746T tumors; [10]): 91.2%
% T/C on day 39 (Hs746T tumors; [10]): 102.9%
% Inhibition (Hs746T tumors; day 14, PM00104 0.9 and oxaliplatin 4 mg/kg/day): 0.1%
% Inhibition (Hs746T tumors; day 14, PM00104 0.9 and oxaliplatin 8 mg/kg/day): 0.4%
% Inhibition (Hs746T tumors; day 19, PM00104 0.9 and oxaliplatin 4 mg/kg/day): 20.1%
% Inhibition (Hs746T tumors; day 19, PM00104 0.9 and oxaliplatin 8 mg/kg/day): 16.5%
% Inhibition (Hs746T tumors; day 22, PM00104 0.9 and oxaliplatin 4 mg/kg/day): 16.2%
% Inhibition (Hs746T tumors; day 22, PM00104 0.9 and oxaliplatin 8 mg/kg/day): 15.1%
% Inhibition (Hs746T tumors; day 26, PM00104 0.9 and oxaliplatin 4 mg/kg/day): 21.4%
% Inhibition (Hs746T tumors; day 26, PM00104 0.9 and oxaliplatin 8 mg/kg/day): 10.9%
% Inhibition (Hs746T tumors; day 29, PM00104 0.9 and oxaliplatin 4 mg/kg/day): 15.8%
% Inhibition (Hs746T tumors; day 29, PM00104 0.9 and oxaliplatin 8 mg/kg/day): 15.5%
% Inhibition (Hs746T tumors; day 32, PM00104 0.9 and oxaliplatin 4 mg/kg/day): 12.5%
% Inhibition (Hs746T tumors; day 32, PM00104 0.9 and oxaliplatin 8 mg/kg/day): 8.8%
% Inhibition (Hs746T tumors; day 39, PM00104 0.9 and oxaliplatin 4 mg/kg/day): −8.4%
% Inhibition (Hs746T tumors; day 39, PM00104 0.9 and oxaliplatin 8 mg/kg/day): −2.9%
pIC50 [1]: 4.42
pIC50 [2]: 5.49
IC50 [3]: 0.192 µg/mL
IC50 [4]: 0.289 µg/mL
IC50 [5]: 8.14 µg/mL
pIC50 [6]: 3.85
